Our source for the mutagenic call and call values is PubChem BioAssay AID1259408 (Genetic Toxicology Data Bank (GENE-TOX), 2018).

Active and inactive are the calls of the source. The rule behind the calls is not given here.

The series relates to GENE-TOX genotoxicity assays, various organisms and cells. Kind of series: GENE-TOX mutagenicity studies. The settings on record: for call: Assay Type: In vivo carcinogenicity studies.
[1] abbreviates: Species/Cell Type: Nonhuman, Assay Code: CCG+, Evaluation Type: Evaluation A (Pre-1980).
The mark [2] stands for this setting: Species/Cell Type: Drosophila melanogaster, Assay Type: Sex-linked recessive lethal gene mutation, Assay Code: SRLT, Evaluation Type: Evaluation A (Pre-1980).
Setting [3] is: Species/Cell Type: Human lymphocytes or leukocytes, Assay Type: Chromosome aberrations in vitro, Assay Code: CY7+, Evaluation Type: Evaluation A (Pre-1980).
Setting [4] is: Species/Cell Type: Human lymphocytes, Assay Type: Sister-chromatid exchange (SCE) in vitro, Assay Code: SCL+D, Dose Response: With dose response, Evaluation Type: Evaluation B (Post-1980).
The mark [5] stands for this setting: Species/Cell Type: Vicia faba, Assay Type: Chromosome aberrations, Assay Code: VIC+, Evaluation Type: Evaluation A (Pre-1980).

`Cc1ccc(N2CC[N+](C)([O-])CC2)c2c(=O)c3ccc(Cl)cc3sc12`: for the setting “Species/Cell Type: Salmonella typhimurium (one or more of the five standard strains: TA98, TA100, TA1535, TA1537, and TA1538), Assay Type: Histidine reverse gene mutation, Ames assay, Assay Code: SALT, Evaluation Type: Evaluation A (Pre-1980)”, the mutagenic call is “no conclusion”.

As to `COC(=O)[C@H]1[C@H]2C[C@@H]3c4[nH]c5cc(OC)ccc5c4CCN3C[C@H]2C[C@@H](OC(=O)c2cc(OC)c(OC)c(OC)c2)[C@@H]1OC`, the mutagenic call (Species/Cell Type: Aspergillus nidulans, Assay Type: Aneuploidy, chromosome aberrations, Assay Code: ASNT, Evaluation Type: Evaluation A (Pre-1980)) is given as “no conclusion”. Also, the call under setting [1] was “active; positive”.

As to `ClC1=C(Cl)[C@]2(Cl)[C@@H]3[C@H]4C[C@H]([C@@H]5O[C@H]45)[C@@H]3[C@@]1(Cl)C2(Cl)Cl`, the mutagenic call runs as follows: under setting [2], “no conclusion”; (Species/Cell Type: Hordeum vulgare (barley), Assay Type: Chromosome aberrations, Assay Code: HOCT, Evaluation Type: Evaluation A (Pre-1980)) “no conclusion”; (Species/Cell Type: Human diploid fibroblasts, Assay Type: Unscheduled DNA synthesis (UDS) in vitro, DNA effects, Assay Code: UDH-, Evaluation Type: Evaluation A (Pre-1980)) “inactive; negative”; (Species/Cell Type: Saccharomyces cerevisiae, Assay Type: Mitotic recombination or gene conversion, Assay Code: YEH-, Evaluation Type: Evaluation A (Pre-1980)) “inactive; negative”; (Species/Cell Type: Salmonella typhimurium (one or more of the five standard strains: TA98, TA100, TA1535, TA1537, and TA1538), Assay Type: Histidine reverse gene mutation, Ames assay, Assay Code: SAL-, Evaluation Type: Evaluation A (Pre-1980)) “inactive; negative”; (Species/Cell Type: Vicia faba, Assay Type: Chromosome aberrations, Assay Code: VIC+D, Dose Response: With dose response, Evaluation Type: Evaluation A (Pre-1980)) “active; positive”. Further, the call (Species/Cell Type: Nonhuman, Assay Code: CCG-L, Evaluation Type: Evaluation A (Pre-1980)) was “inactive; negative”.

In the case of `O=S(=O)(O)c1ccc(N=Nc2c(O)ccc3ccccc23)c2ccccc12`, the mutagenic call (Species/Cell Type: Bacillus subtilis (H17 vs M45), Assay Type: Rec-assay, spot test, DNA effects (bacterial DNA repair), Assay Code: REWT, Evaluation Type: Evaluation A (Pre-1980)) is recorded as “no conclusion”.

`O=P(N1CC1)(N1CC1)N1CC1`: the mutagenic call was “active; positive” (Species/Cell Type: Drosophila melanogaster, Assay Type: Sex-linked recessive lethal gene mutation, Assay Code: SRL+, Evaluation Type: Evaluation A (Pre-1980)); “active; positive” (Species/Cell Type: Drosophila melanogaster, Sex: Male, Assay Type: Heritable translocation test, chromosome aberrations, Assay Code: DHT+, Evaluation Type: Evaluation A (Pre-1980)); “active; positive” under setting [3]; “active; positive” under setting [4]; “active; positive” (Species/Cell Type: Human, Assay Type: Sister-chromatid exchange (SCE) in vitro, Assay Code: SC1+D, Dose Response: With dose response, Evaluation Type: Evaluation B (Post-1980)); “no conclusion” (Species/Cell Type: Mammalian germ cells, Sex: Male, Assay Type: Chromosome aberrations in vivo, Assay Code: CY9T, Evaluation Type: Evaluation A (Pre-1980)). Further, the mutagenic call was “active; positive” (Species/Cell Type: Mouse, Sex: Male, Assay Type: Heritable translocation test, chromosome aberrations, Assay Code: HTT+, Evaluation Type: Evaluation A (Pre-1980)); “active; positive” (Species/Cell Type: Neurospora crassa, Assay Type: Forward gene mutation, Assay Code: NEF+, Evaluation Type: Evaluation A (Pre-1980)); “active; positive” (Species/Cell Type: Nonhuman, Assay Type: Chromosome aberrations in vitro, Assay Code: CY&+, Evaluation Type: Evaluation A (Pre-1980)); “active; positive” (Species/Cell Type: Nonhuman, Assay Type: Sister-chromatid exchange (SCE) in vitro, Assay Code: SC2+D, Dose Response: With dose response, Evaluation Type: Evaluation B (Post-1980)); “active; positive” (Species/Cell Type: Rodents, Sex: Male, Assay Type: Dominant lethal test, Assay Code: DLT+, Evaluation Type: Evaluation A (Pre-1980)); “active; positive” (Species/Cell Type: Schizosaccharomyces pombe, Assay Type: Reverse gene mutation, Assay Code: YEZ+, Evaluation Type: Evaluation A (Pre-1980)). In addition, the mutagenic call under setting [5] is “active; positive”. In addition, for the setting “Species/Cell Type: Nonhuman, Assay Code: CCGT, Evaluation Type: Evaluation A (Pre-1980)”, the call is “no conclusion”.

With `COc1ccc2nc3cc(Cl)ccc3c(NCCCNCCO)c2n1`, the mutagenic call (Species/Cell Type: Chinese hamster ovary (CHO) cells, Assay Type: Forward gene mutation at the HPRT locus, Assay Code: CHOT, Evaluation Type: Evaluation B (Post-1980)) is “no conclusion”.

Regarding `[O-]/[N+](=N\O)c1ccccc1`, the call under setting [1] is “active; positive”. For the same compound, the mutagenic call under setting [5] was “active; positive”.

Consider `NC1=NC(=O)NC(=O)C1`, for which the mutagenic call under setting [5] is “active; positive”.

`CCN(CC)c1ccc(N=Nc2ccccc2C(=O)O)cc1`: the mutagenic call under setting [2] is “no conclusion”.

Consider `O=C1c2cccc(O)c2C(=O)c2c(O)cc(CO)cc21`, for which the mutagenic call (Species/Cell Type: Salmonella typhimurium (one or more of the five standard strains: TA98, TA100, TA1535, TA1537, and TA1538), Assay Type: Histidine reverse gene mutation, Ames assay, Assay Code: SAL+/-*, Activation: With metabolic activation, Evaluation Type: Evaluation A (Pre-1980)) is “inactive; positive without activation, negative with activation”.

Turning to `COc1ccc(/C=N/NC(=O)c2ccncc2)c(C(=O)O)c1OC`, under “Species/Cell Type: Salmonella typhimurium, Assay Type: Forward and reverse gene mutation, host-mediated assay, Assay Code: HMA-, Evaluation Type: Evaluation A (Pre-1980)”, the mutagenic call was “inactive; negative”.

With `CCNNCC`, the call under setting [1] is “active; positive”.

On to `COc1cccc2c1C(=O)c1c(O)c3c(c(O)c1C2=O)C[C@@](O)(C(=O)CO)C[C@@H]3O[C@H]1C[C@H](N)[C@H](O)[C@H](C)O1`, for which the mutagenic call runs as follows: (Species/Cell Type: Chinese hamster lung (V79) cells, Assay Type: Forward gene mutation at the HPRT or ouabain locus, Assay Code: V79+, Evaluation Type: Evaluation A (Pre-1980)) “active; positive”; (Species/Cell Type: Chinese hamster ovary (CHO) cells, Assay Type: Forward gene mutation at the HPRT locus, Assay Code: CHO+, Evaluation Type: Evaluation B (Post-1980)) “active; positive”; (Species/Cell Type: Fischer rat embryo (RLV/1706) cells, Assay Type: Cell transformation, viral enhanced, Assay Code: CTR+, Evaluation Type: Evaluation A (Pre-1980)) “active; positive”; under setting [3], “active; positive”; under setting [4], “active; positive”; (Species/Cell Type: Human lymphocytes, Assay Type: Sister-chromatid exchange (SCE) in vivo, Assay Code: SCY+D, Dose Response: With dose response, Evaluation Type: Evaluation A (Pre-1980)) “active; positive”. The mutagenic call (Species/Cell Type: Human, Assay Type: Sister-chromatid exchange (SCE) in vitro, Assay Code: SC1+D, Dose Response: With dose response, Evaluation Type: Evaluation A (Pre-1980)) is “active; positive”; the mutagenic call (Species/Cell Type: Human, Sex: Male, Assay Type: Sperm morphology, Assay Code: SPH+, Evaluation Type: Evaluation A (Pre-1980)) is “active; positive”; the mutagenic call (Species/Cell Type: Mammalian polychromatic erythrocytes, Assay Type: Micronucleus test, chromosome aberrations, Assay Code: MNT+, Evaluation Type: Evaluation A (Pre-1980)) was “active; positive”; the mutagenic call (Species/Cell Type: Mouse, Sex: Male, Assay Type: Sperm morphology, Assay Code: SPI+, Evaluation Type: Evaluation A (Pre-1980)) was “active; positive”; the mutagenic call (Species/Cell Type: Nonhuman, Assay Type: Sister-chromatid exchange (SCE) in vitro, Assay Code: SC2+D, Dose Response: With dose response, Evaluation Type: Evaluation A (Pre-1980)) is “active; positive”; the mutagenic call (Species/Cell Type: Nonhuman, Assay Type: Sister-chromatid exchange (SCE) in vivo, Assay Code: SC3+D, Dose Response: With dose response, Evaluation Type: Evaluation A (Pre-1980)) was “active; positive”. Further, the mutagenic call (Species/Cell Type: Salmonella typhimurium (one or more of the five standard strains: TA98, TA100, TA1535, TA1537, and TA1538), Assay Type: Histidine reverse gene mutation, Ames assay, Assay Code: SAL+, Evaluation Type: Evaluation A (Pre-1980)) is “active; positive”. The call under setting [1] is “active; positive”.

Turning to `CC(C)CBr`, where the note is “Species/Cell Type: Escherichia coli polA (W3119 vs P3478), Assay Type: Rec-assay, DNA effects (bacterial DNA repair), Assay Code: RE1T, Evaluation Type: Evaluation A (Pre-1980)”, the mutagenic call is on record as “no conclusion”.

With `O=[N+]([O-])c1ccc(/C=C/c2nccn2Cc2ccccc2)o1`, the mutagenic call (Species/Cell Type: Neurospora crassa, Assay Type: Reverse gene mutation, Assay Code: NER+, Evaluation Type: Evaluation A (Pre-1980)) was “active; positive”.
